PubChem BioAssay (NCI)
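Cultured in 96-well plates, cells were exposed to test compound for 48 hours across five concentrations. GI50: concentration for 50% inhibition of growth. TGI is the concentration that stops growth completely.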

Columns and labels:
Assay in all cases: growth of human tumour cells (NCI), 48 h
IGROV1 ovarian = system: IGROV1 ovarian
KM12 colon = system: KM12 colon
NCI-H23 lung = system: NCI-H23 lung
RXF 393 renal = system: RXF 393 renal
SF-268 CNS = system: SF-268 CNS
U251 CNS = system: U251 CNS
UO-31 renal = system: UO-31 renal
SK-MEL-2 melanoma = system: SK-MEL-2 melanoma
MDA-MB-435 = system: MDA-MB-435
MCF7 breast = system: MCF7 breast

CCCCCCCCCCCCCCCC(=O)NCC(COP(=O)([O-])OCC[N+](C)(C)C)OCC (stereo unspecified)
TGI (IGROV1 ovarian): 16 µM
TGI (KM12 colon): 3.01 µM
TGI (NCI-H23 lung): 39.3 µM
TGI (RXF 393 renal): 5.3 µM
TGI (SF-268 CNS): 27 µM
TGI (U251 CNS): 14.4 µM
TGI (UO-31 renal): 32.9 µM

O=C1CCCN(c2ccccc2)N1
TGI (IGROV1 ovarian): > 100 µM
TGI (KM12 colon): > 100 µM
TGI (RXF 393 renal): > 100 µM
TGI (SF-268 CNS): > 100 µM
TGI (SK-MEL-2 melanoma): > 100 µM
TGI (U251 CNS): > 100 µM
TGI (UO-31 renal): > 100 µM

CCOC(=O)C1=C(C)Nc2ccccc2S1
TGI (IGROV1 ovarian): > 100 µM
TGI (KM12 colon): > 100 µM
TGI (NCI-H23 lung): > 100 µM
TGI (RXF 393 renal): > 100 µM
TGI (SF-268 CNS): > 100 µM
TGI (SK-MEL-2 melanoma): > 100 µM
TGI (U251 CNS): > 100 µM
TGI (UO-31 renal): > 100 µM

COC(=O)C(C#N)=C1c2ccccc2Oc2ccccc21
TGI (IGROV1 ovarian): > 100 µM
TGI (KM12 colon): > 100 µM
TGI (NCI-H23 lung): > 100 µM
TGI (RXF 393 renal): > 100 µM
TGI (SF-268 CNS): > 100 µM
TGI (SK-MEL-2 melanoma): > 100 µM
TGI (UO-31 renal): > 100 µM

Cc1ccccc1C(C#N)C(=O)C(=O)Nc1nc([N+](=O)[O-])cs1 (stereo unspecified)
TGI (IGROV1 ovarian): > 100 µM
TGI (KM12 colon): > 100 µM
TGI (NCI-H23 lung): > 100 µM
TGI (RXF 393 renal): > 100 µM
TGI (SF-268 CNS): > 100 µM
TGI (U251 CNS): > 100 µM
TGI (UO-31 renal): > 100 µM

O=C1NC2(CCCC2)C(=O)C12CCCC2
TGI (IGROV1 ovarian): > 100 µM
TGI (KM12 colon): > 100 µM
TGI (NCI-H23 lung): > 100 µM
TGI (RXF 393 renal): > 100 µM
TGI (SF-268 CNS): > 100 µM
TGI (SK-MEL-2 melanoma): > 100 µM
TGI (U251 CNS): > 100 µM
TGI (UO-31 renal): > 100 µM

CC(=O)c1ccc(Nc2cc(-c3ccccc3)nc3c(O)cccc23)cc1
GI50 (IGROV1 ovarian): 2.57 µM
TGI (IGROV1 ovarian): 13.4 µM
GI50 (KM12 colon): 5.72 µM
TGI (KM12 colon): > 100 µM
GI50 (MDA-MB-435): 23.6 µM
TGI (MDA-MB-435): 65.3 µM
GI50 (NCI-H23 lung): 12.5 µM
TGI (NCI-H23 lung): 64.7 µM
GI50 (RXF 393 renal): 17.4 µM
TGI (RXF 393 renal): 60.3 µM
GI50 (SK-MEL-2 melanoma): 13.2 µM
TGI (SK-MEL-2 melanoma): 40.4 µM
GI50 (U251 CNS): 9.44 µM
TGI (U251 CNS): > 100 µM
GI50 (UO-31 renal): 14 µM
TGI (UO-31 renal): 53.9 µM

O=C(CCN1CCN(c2cnc3ccccc3n2)CC1)c1csc2ccccc12
GI50 (KM12 colon): 33.5 µM
TGI (KM12 colon): > 100 µM
GI50 (MCF7 breast): 18.1 µM
TGI (MCF7 breast): 48.6 µM
GI50 (MDA-MB-435): > 100 µM
TGI (MDA-MB-435): > 100 µM
GI50 (NCI-H23 lung): > 100 µM
TGI (NCI-H23 lung): > 100 µM
GI50 (RXF 393 renal): 18.7 µM
TGI (RXF 393 renal): 49.5 µM
GI50 (SF-268 CNS): > 100 µM
TGI (SF-268 CNS): > 100 µM
GI50 (SK-MEL-2 melanoma): > 100 µM
TGI (SK-MEL-2 melanoma): > 100 µM
GI50 (U251 CNS): 47.8 µM
TGI (U251 CNS): > 100 µM
GI50 (UO-31 renal): 25.1 µM
TGI (UO-31 renal): 77.5 µM

O=C(/C=C/c1ccccc1)/C=C/c1ccccc1O
TGI (IGROV1 ovarian): 35.7 µM
TGI (KM12 colon): 31.7 µM
TGI (NCI-H23 lung): 49.3 µM
TGI (RXF 393 renal): 37.3 µM
TGI (SF-268 CNS): 79.4 µM
TGI (SK-MEL-2 melanoma): > 100 µM
TGI (U251 CNS): 32.7 µM
TGI (UO-31 renal): 31.8 µM

C=C1C(=O)O[C@H]2[C@H]1CC/C(CNC(=O)c1c[nH]c3ccc(F)cc13)=C\CC[C@@]1(C)O[C@@H]21
GI50 (IGROV1 ovarian): 1.63 µM
TGI (IGROV1 ovarian): 5.47 µM
GI50 (KM12 colon): 2.69 µM
TGI (KM12 colon): 10.2 µM
GI50 (MDA-MB-435): 1.77 µM
TGI (MDA-MB-435): 7.41 µM
GI50 (NCI-H23 lung): 1.68 µM
TGI (NCI-H23 lung): 3.8 µM
GI50 (RXF 393 renal): 0.522 µM
TGI (RXF 393 renal): 1.75 µM
GI50 (SF-268 CNS): 1.78 µM
TGI (SF-268 CNS): 4.45 µM
GI50 (SK-MEL-2 melanoma): 1.42 µM
TGI (SK-MEL-2 melanoma): 3.09 µM
GI50 (U251 CNS): 2.68 µM
TGI (U251 CNS): 7.94 µM
GI50 (UO-31 renal): 1.14 µM
TGI (UO-31 renal): 2.48 µM

O=C(c1ccc2ccccc2c1)c1c(C(F)(F)F)n([O-])c2cc(Cl)c(Cl)cc2[n+]1=O
GI50 (IGROV1 ovarian): 1.3 µM
TGI (IGROV1 ovarian): 2.56 µM
GI50 (KM12 colon): 1.53 µM
TGI (KM12 colon): 2.86 µM
GI50 (MCF7 breast): 1.68 µM
TGI (MCF7 breast): 3.41 µM
GI50 (MDA-MB-435): 1.92 µM
TGI (MDA-MB-435): 3.56 µM
GI50 (RXF 393 renal): 1.6 µM
TGI (RXF 393 renal): 3.04 µM
GI50 (SF-268 CNS): 1.85 µM
TGI (SF-268 CNS): 3.96 µM
GI50 (SK-MEL-2 melanoma): 1.64 µM
TGI (SK-MEL-2 melanoma): 2.99 µM
GI50 (U251 CNS): 1.61 µM
TGI (U251 CNS): 2.96 µM
GI50 (UO-31 renal): 1.51 µM
TGI (UO-31 renal): 2.83 µM

CCOC(=O)C1(CC)CCCCC(=O)N1 (stereo unspecified)
TGI (IGROV1 ovarian): > 100 µM
TGI (NCI-H23 lung): > 100 µM
TGI (RXF 393 renal): > 100 µM
TGI (SF-268 CNS): > 100 µM
TGI (U251 CNS): > 100 µM
TGI (UO-31 renal): > 100 µM

CC(=O)[CH-]C(=O)c1ccccc1.CC(=O)[CH-]C(=O)c1ccccc1.CCCCCCCCCCCCCCCCCC(=O)[O-].CCCCCCCCCCCCCCCCCC(=O)[O-].[Ti+4]
GI50 (IGROV1 ovarian): 34.9 µM
TGI (IGROV1 ovarian): > 100 µM
GI50 (KM12 colon): 33.6 µM
TGI (KM12 colon): > 100 µM
GI50 (NCI-H23 lung): 36.1 µM
TGI (NCI-H23 lung): > 100 µM
GI50 (RXF 393 renal): 19.7 µM
TGI (RXF 393 renal): 33.9 µM
GI50 (SF-268 CNS): 21.6 µM
TGI (SF-268 CNS): 47.6 µM
GI50 (SK-MEL-2 melanoma): 21.7 µM
TGI (SK-MEL-2 melanoma): 52.4 µM
GI50 (U251 CNS): 20.3 µM
TGI (U251 CNS): 41.4 µM
GI50 (UO-31 renal): 13.8 µM
TGI (UO-31 renal): 26.7 µM

CSC1=NC=CCN1C
TGI (IGROV1 ovarian): > 100 µM
TGI (KM12 colon): > 100 µM
TGI (NCI-H23 lung): > 100 µM
TGI (SF-268 CNS): > 100 µM
TGI (SK-MEL-2 melanoma): > 100 µM
TGI (U251 CNS): > 100 µM
TGI (UO-31 renal): > 100 µM

C=CC1=CSNN1
TGI (IGROV1 ovarian): > 100 µM
TGI (KM12 colon): > 100 µM
TGI (NCI-H23 lung): > 100 µM
TGI (RXF 393 renal): > 100 µM
TGI (SF-268 CNS): > 100 µM
TGI (SK-MEL-2 melanoma): > 100 µM
TGI (U251 CNS): > 100 µM
TGI (UO-31 renal): > 100 µM

N#Cc1c(-c2cccs2)c2c(=S)[nH]c(=S)[nH]c2[nH]c1=S
GI50 (IGROV1 ovarian): 71.3 µM
TGI (IGROV1 ovarian): > 100 µM
GI50 (KM12 colon): 28.6 µM
TGI (KM12 colon): > 100 µM
GI50 (MDA-MB-435): 41.1 µM
TGI (MDA-MB-435): > 100 µM
GI50 (RXF 393 renal): 37.1 µM
TGI (RXF 393 renal): > 100 µM
GI50 (SF-268 CNS): 32.4 µM
TGI (SF-268 CNS): 67.2 µM
GI50 (SK-MEL-2 melanoma): 32.9 µM
TGI (SK-MEL-2 melanoma): 80.9 µM
GI50 (U251 CNS): 30.2 µM
TGI (U251 CNS): > 100 µM
GI50 (UO-31 renal): 40.6 µM
TGI (UO-31 renal): 92.6 µM

C#CCNC(=O)NC(CCCNC(=O)OCc1ccccc1)C(=O)OCc1ccccc1 (stereo unspecified)
TGI (IGROV1 ovarian): > 100 µM
TGI (KM12 colon): > 100 µM
TGI (NCI-H23 lung): > 100 µM
TGI (RXF 393 renal): 95.2 µM
TGI (SF-268 CNS): > 100 µM
TGI (SK-MEL-2 melanoma): > 100 µM
TGI (U251 CNS): > 100 µM
TGI (UO-31 renal): > 100 µM

COC(=O)C(c1[nH]nc2ccccc12)C(C(=O)OC)c1[nH]nc2ccccc12 (stereo unspecified)
TGI (IGROV1 ovarian): > 100 µM
TGI (KM12 colon): > 100 µM
TGI (NCI-H23 lung): > 100 µM
TGI (RXF 393 renal): 66.3 µM
TGI (SF-268 CNS): > 100 µM
TGI (U251 CNS): > 100 µM
TGI (UO-31 renal): > 100 µM

CCC(C)C1NC(=O)c2nc(oc2-c2ccccc2)-c2csc(n2)-c2csc(n2)-c2nc(oc2C)-c2coc(n2)CNC(=O)C(C(C)CC)NC1=O (stereo unspecified)
GI50 (IGROV1 ovarian): 0.0263 µM
TGI (IGROV1 ovarian): 0.122 µM
GI50 (KM12 colon): 0.0223 µM
TGI (KM12 colon): 0.119 µM
GI50 (MDA-MB-435): 0.0464 µM
TGI (MDA-MB-435): 0.163 µM
GI50 (NCI-H23 lung): 0.04 µM
TGI (NCI-H23 lung): 0.155 µM
GI50 (RXF 393 renal): 0.0334 µM
TGI (RXF 393 renal): 0.166 µM
GI50 (SF-268 CNS): 0.0249 µM
TGI (SF-268 CNS): 0.154 µM
GI50 (U251 CNS): 0.0126 µM
TGI (U251 CNS): 0.0492 µM
GI50 (UO-31 renal): 0.0515 µM
TGI (UO-31 renal): 0.185 µM
